# Assays:
# pro-heparanase (H60) [1] = molecular target: T1, pro-heparanase (H60) (Homo sapiens, UniProt Q9Y251, K307R); test: Circular dichroism spectrometry of pro-heparanase; conditions: data not shown
# T1 sequence (Q9Y251 36-543 K307R): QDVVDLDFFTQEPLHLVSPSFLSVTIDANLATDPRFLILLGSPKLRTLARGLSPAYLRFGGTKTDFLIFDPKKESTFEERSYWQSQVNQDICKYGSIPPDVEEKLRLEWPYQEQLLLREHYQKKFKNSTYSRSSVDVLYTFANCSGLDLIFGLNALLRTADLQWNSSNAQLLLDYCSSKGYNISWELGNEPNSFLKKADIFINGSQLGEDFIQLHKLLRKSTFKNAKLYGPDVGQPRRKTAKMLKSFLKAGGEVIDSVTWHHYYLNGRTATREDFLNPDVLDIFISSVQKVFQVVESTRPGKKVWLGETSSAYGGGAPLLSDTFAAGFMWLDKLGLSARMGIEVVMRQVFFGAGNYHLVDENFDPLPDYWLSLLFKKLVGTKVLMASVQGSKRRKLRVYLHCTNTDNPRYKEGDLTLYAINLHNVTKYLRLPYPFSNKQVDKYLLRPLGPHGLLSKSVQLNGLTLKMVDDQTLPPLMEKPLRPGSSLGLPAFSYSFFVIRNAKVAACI
# Procedure: Circular Dichroism spectrometry—Circular Dichroism spectra were recorded using a JASCO 500 spetropolarimeter. Far Ultraviolet measurements (260-200 nm) were performed in a 0.1 mm demountable cuvette at 25° C., scanning at a rate of 10 nm/min. Pro-heparanase was assayed at a concentration of 0.72 mg/ml in 20 mM sodium phosphate buffer pH 6.8 supplemented with 300 mM NaCl. Effect of heparin on pro-heparanase spectra was determined at a concentration of 100 μM, and the inhibitor was added at a concentration of 15 μM. Base-line recordings were performed in the presence and absence of heparin to correct the pro-heparanase spectra.
# pro-heparanase (H60) [2] = molecular target: T1, pro-heparanase (H60); test: Pro-heparanase activation in a cell-based assay (293 cells, DMB assay); conditions: inhibition of pro-heparanase activation (H60); Table 15
# β-FGF = molecular target: T2, β-FGF (Homo sapiens, UniProt P09038); test: Elisa assay for binding of β-FGF to heparin; conditions: inhibition of β-FGF binding to heparin
# T2 construct: purchased Sigma F0291
# T2 sequence (P09038 143-288): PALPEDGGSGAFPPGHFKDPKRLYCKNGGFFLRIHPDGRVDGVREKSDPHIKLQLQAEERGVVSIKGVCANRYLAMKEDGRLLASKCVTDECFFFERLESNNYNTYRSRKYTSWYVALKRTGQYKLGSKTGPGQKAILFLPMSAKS
# Procedure: Elisa assay for determination of binding of β-FGF to heparin—96 well microplates were coated overnight with Heparin-albumin (Lizard) and blocked with 1% BSA in PBS with 0.05% Tween and 0.01% thimerosal for 2 hrs. β-FGF was added to the plates at a concentration of 0.8 ng/ml and incubated for 45 min at 23-25° C. The amount of β-FGF bound to heparin was detected using anti-FGF monoclonal antibody (Sigma Cat. # F6162) at a concentration of 2.5 ng/ml and secondary antibodies Sheep anti-mouse IgG linked to horseradish peroxidase (1:3000). TMB (Pierce Cat. #34021) was used as a substrate for peroxidase.
# (§1) The plates were read at 450 nm with a reference wavelength of 630 nm using a VERSAmax plate reader. […] Percent inhibition was calculated as compared with the control reactions pre-incubated with 1% DMSO only.
# VEGF = molecular target: T3, VEGF (Homo sapiens, UniProt P15692); test: Elisa assay for binding of VEGF to heparin; conditions: inhibition of VEGF binding to heparin
# T3 sequence (P15692 27-191 isoform P15692-4): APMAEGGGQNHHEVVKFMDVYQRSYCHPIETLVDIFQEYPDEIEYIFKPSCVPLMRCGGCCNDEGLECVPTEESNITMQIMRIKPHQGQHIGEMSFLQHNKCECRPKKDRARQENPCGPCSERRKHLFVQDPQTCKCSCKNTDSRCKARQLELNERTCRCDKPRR
# Procedure: Elisa assay for determination of binding of VEGF to heparin—96 well microplates were coated overnight with Heparin-albumin (Lizard) and blocked with 1% BSA in PBS with 0.05% Tween and 0.01% thimerosal for 2 hrs. VEGF was added to the plates at a concentration of 2 ng/ml and incubated for 45 min. at 23-25° C. The amount of VEGF bound to heparin was detected using anti-VEGF monoclonal antibody (Sigma Cat. # V4758) at a concentration of 0.26 μg/ml and secondary antibodies Sheep anti-mouse IgG linked to horseradish peroxidase (1:2000). TMB (Pierce Cat. #34021) was used as a substrate for peroxidase.
# as §1
# HUVEC cell = test: Cell Migration Assay (Boyden chamber); type: cell-based; conditions: Homo sapiens, HUVEC cells, 5 h, read-out: Inhibition of chemotaxis IC50
# Procedure: Cord formation and cell migration assays were executed following explicit directives provided by the inventors of the present invention by the National Cancer Institute (Biological Testing Branch, Developmental Therapeutics Program, DCTD, NCI, Fairview Center, Suite 205, 1003 West 7th Street, Frederick, Md. 21701-8527).
# Cell Migration Assay—Migration was assessed using a 48-well Boyden chamber including 8 μm pore size collagen-coated (10 μg/ml rat tail collagen; Collaborative Laboratories) polycarbonate filters (Osmonics, Inc.). The bottom chamber wells included 27-29 μl of DMEM medium alone (baseline) or medium containing chemo-attractant (bFGF, VEGF or Swiss 3T3 cell conditioned medium). The top chambers included 45 μl of HUVEC cell suspension (1×10^6 cells/ml) prepared in DMEM+1% BSA with or without the test compound. Followinf 5 h of incubation at 37° C., the membrane was rinsed with PBS, fixed and stained in Diff-Quick solutions. The filter was placed on a glass slide with the migrated cells facing down and cells on top were removed using a Kimwipe. The testing was performed in 4-6 replicates where five fields were counted from each well. Negative unstimulated control values were subtracted from stimulated control and drug treated values. Data wad plotted as mean migrated cell±S.D. IC50 was calculated from the plotted data.
smiles,measurement,setting,value
O=C(O)CCCN1C(=O)C(=Cc2ccc(-c3ccc([N+](=O)[O-])cc3)o2)SC1=S [Compound 5],change in conformation of H60 induced by heparin,pro-heparanase (H60) [1],prevents the change in conformation
same,IC50,pro-heparanase (H60) [2],130 nM
same,IC50,β-FGF,6.1 µM
same,IC50,VEGF,3.2 µM
same,IC50,HUVEC cell,400 nM
